Assay results as given in ChEMBL document CHEMBL1156651, “Viridamides A and B, lipodepsipeptides with antiprotozoal activity from the marine cyanobacterium Oscillatoria nigro-viridis” (J Nat Prod, 2008).
Where a SMILES comes first, the peptide text is derived from it. [ ]: non-standard residue; d: D form. The star is where a group is joined. Hmpa(2S,3S) = CC[C@H](C)[C@H](O)C(=O)O; NMeI = CC[C@H](C)[C@H](NC)C(=O)O; NMeV = CN[C@H](C(=O)O)C(C)C; X1 = C#CCCCC(CCCC(=O)*)OC

Experiments:
Type in all cases: functional, organism-based
Trypanosoma cruzi = test: Antitrypanosomal activity against Trypanosoma cruzi Tulahuen C4 in vero cells assessed as intracellular growth inhibition of trypomastigote by beta-galactosidase reporter gene assay
Leishmania mexicana = test: Antileishmanial activity against Leishmania mexicana promastigotes by DNA fluorescence method
Plasmodium falciparum = test: Antimalarial activity against Plasmodium falciparum

IC50 (Trypanosoma cruzi)	IC50 (Leishmania mexicana)	IC50 (Plasmodium falciparum)	Compound
1.1 µM	1.5 µM	5.8 µM	C#CCCCC(CCCC(=O)N(C)[C@H](C(=O)N[C@H](C(=O)N[C@H](C(=O)N(C)[C@H](C(=O)O[C@H](C(=O)N1CCC[C@H]1C(=O)OC)[C@@H](C)CC)C(C)C)C(C)C)C(C)C)[C@@H](C)CC)OC (stereo partly drawn) [VIRIDAMIDE A] (X1-[NMeI]VV[NMeV][Hmpa(2S,3S)]P-OMe)
	0.1 µM		C[C@@H]1[C@H](O)[C@@H](C)/C=C/C=C/C=C/C=C/C=C/C=C/C=C/[C@H](O[C@@H]2O[C@H](C)[C@@H](O)[C@H](N)[C@@H]2O)C[C@@H]2O[C@](O)(C[C@@H](O)C[C@@H](O)[C@H](O)CC[C@@H](O)C[C@@H](O)CC(=O)O[C@H]1C)C[C@H](O)[C@H]2C(=O)O [AMPHOTERICIN B]
10 µM			CC1CS(=O)(=O)CCN1/N=C/c1ccc([N+](=O)[O-])o1 (stereo not given) [NIFURTIMOX]
